For assay [1], the system named is Bacillus subtilis. Nature of the assay: Antibacterial activity against Bacillus subtilis ATCC 43223. In kind it is functional.
In assay [2] the test system is Staphylococcus aureus. Put plainly: Antibacterial activity against Staphylococcus aureus ATCC 29213. In kind it is functional.

For `C=C[C@@]1(C)CC=C2[C@@H](CC[C@@H]3C(C)(C)[C@H](OC(=O)C(=O)N(O)C(C)=O)CC[C@@]23C)C1` [OXALOTERPIN A], the IC in assay [1] was determined as 1.9 nmol/mL; in assay [2] it was 3.7 nmol/mL.
